Literature values, collected in article PMC6789782, “Safety Pharmacological Evaluation of the Coffee Component, Caffeoylquinic Acid, and Its Metabolites, Using Ex Vivo and In Vitro Profiling Assays” (Pharmaceuticals, 2019).

System: rats
Conditions: two years; cited from earlier work

O=C(O)/C=C/c1ccc(O)c(O)c1 [CA, caffeic acid]
Safety pharmacological toxicity on chronic exposure: no safety pharmacological toxicity
